In patent publication US10544143B2, “4-azaindole compounds” (BRISTOL-MYERS SQUIBB COMPANY, priority 2017, dated 2020) one finds IC50 data, which are given here for 36 molecules.

pIC50: −log10 of the molar value. Where two headings read alike, the source gives them in different places. Some results are limits rather than exact numbers.

In one assay the target is human TLR9 (Homo sapiens (Human), UniProt Q9NR96). Briefly: TLR9 inhibition reporter assay (HEK-Blue SEAP).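 Note: SEAP driven by an IFN-β minimal promoter with NF-κB and AP-1 sites, read after 22 h, compounds dosed 0.05 nM–50 µM, inhibition scaled between agonist plus DMSO and reference-inhibitor wells.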 A general note: A reporter such as luciferase makes a cellular process visible.
Chain of human TLR9 (Q9NR96 26-1032): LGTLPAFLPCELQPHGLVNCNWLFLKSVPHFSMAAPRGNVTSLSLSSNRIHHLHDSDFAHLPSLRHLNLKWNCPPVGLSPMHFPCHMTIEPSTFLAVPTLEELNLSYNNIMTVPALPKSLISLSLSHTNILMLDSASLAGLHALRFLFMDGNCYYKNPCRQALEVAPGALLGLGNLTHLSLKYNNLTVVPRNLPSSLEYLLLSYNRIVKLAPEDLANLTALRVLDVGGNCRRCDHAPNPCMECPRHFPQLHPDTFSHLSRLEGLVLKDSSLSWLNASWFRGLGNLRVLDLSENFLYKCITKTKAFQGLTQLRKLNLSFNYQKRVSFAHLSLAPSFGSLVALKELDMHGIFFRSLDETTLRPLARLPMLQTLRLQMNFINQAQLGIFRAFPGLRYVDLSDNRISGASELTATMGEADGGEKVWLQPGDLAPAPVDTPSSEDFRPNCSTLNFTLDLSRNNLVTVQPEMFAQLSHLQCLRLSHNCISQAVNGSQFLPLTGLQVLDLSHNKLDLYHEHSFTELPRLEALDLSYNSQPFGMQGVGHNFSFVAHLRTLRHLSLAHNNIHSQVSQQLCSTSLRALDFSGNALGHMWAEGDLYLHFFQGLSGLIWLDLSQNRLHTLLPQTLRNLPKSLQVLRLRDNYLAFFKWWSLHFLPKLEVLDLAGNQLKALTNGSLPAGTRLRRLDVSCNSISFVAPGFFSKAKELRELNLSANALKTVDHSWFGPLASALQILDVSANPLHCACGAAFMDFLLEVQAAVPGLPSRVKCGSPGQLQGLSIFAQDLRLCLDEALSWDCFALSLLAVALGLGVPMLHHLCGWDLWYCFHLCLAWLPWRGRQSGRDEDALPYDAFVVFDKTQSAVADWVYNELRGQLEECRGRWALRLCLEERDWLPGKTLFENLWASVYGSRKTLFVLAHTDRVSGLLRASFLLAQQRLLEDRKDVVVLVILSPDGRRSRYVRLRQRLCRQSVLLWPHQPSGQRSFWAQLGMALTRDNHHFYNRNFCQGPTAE
The target of the next assay is human TLR8 (Homo sapiens (Human), UniProt Q9NR97). Briefly: TLR8 inhibition reporter assay (HEK-Blue SEAP).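 Note: SEAP driven by IFN-β minimal promoter carrying NF-κB and AP-1 sites, compounds dosed 0.05 nM to 50 µM for 22 h, inhibition scaled between agonist-plus-DMSO and reference-inhibitor wells.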
Chain of human TLR8 (Q9NR97 27-1041): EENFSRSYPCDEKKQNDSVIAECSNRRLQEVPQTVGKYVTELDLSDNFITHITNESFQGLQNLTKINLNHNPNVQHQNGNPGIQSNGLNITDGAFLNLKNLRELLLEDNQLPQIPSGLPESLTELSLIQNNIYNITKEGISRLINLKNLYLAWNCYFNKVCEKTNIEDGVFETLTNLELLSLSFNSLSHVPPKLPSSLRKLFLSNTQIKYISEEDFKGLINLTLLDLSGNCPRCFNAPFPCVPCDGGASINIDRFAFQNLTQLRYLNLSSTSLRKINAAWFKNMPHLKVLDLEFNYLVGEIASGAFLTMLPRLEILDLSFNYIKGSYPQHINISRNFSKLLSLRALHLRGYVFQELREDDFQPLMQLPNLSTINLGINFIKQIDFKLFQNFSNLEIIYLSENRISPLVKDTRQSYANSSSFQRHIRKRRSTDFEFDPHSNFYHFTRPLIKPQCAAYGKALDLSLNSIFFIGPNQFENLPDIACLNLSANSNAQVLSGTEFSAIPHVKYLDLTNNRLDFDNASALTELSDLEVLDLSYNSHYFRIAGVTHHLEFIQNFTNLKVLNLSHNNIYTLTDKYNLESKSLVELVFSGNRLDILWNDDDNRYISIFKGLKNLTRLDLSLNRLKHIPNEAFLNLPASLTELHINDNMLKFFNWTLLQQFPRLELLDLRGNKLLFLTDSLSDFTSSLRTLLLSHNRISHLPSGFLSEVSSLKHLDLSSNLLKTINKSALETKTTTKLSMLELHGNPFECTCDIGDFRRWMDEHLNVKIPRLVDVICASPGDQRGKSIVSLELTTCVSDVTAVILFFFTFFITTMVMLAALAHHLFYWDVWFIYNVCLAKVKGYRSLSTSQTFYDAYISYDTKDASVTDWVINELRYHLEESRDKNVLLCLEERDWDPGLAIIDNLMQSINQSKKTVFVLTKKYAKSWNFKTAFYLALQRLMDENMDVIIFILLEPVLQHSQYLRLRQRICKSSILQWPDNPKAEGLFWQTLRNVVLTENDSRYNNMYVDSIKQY
The target of another assay is human TLR7 (Homo sapiens (Human), UniProt Q9NYK1). Briefly: TLR7 inhibition reporter assay (HEK-Blue SEAP). In kind it is cell-based.
Chain of human TLR7 (Q9NYK1 27-1049): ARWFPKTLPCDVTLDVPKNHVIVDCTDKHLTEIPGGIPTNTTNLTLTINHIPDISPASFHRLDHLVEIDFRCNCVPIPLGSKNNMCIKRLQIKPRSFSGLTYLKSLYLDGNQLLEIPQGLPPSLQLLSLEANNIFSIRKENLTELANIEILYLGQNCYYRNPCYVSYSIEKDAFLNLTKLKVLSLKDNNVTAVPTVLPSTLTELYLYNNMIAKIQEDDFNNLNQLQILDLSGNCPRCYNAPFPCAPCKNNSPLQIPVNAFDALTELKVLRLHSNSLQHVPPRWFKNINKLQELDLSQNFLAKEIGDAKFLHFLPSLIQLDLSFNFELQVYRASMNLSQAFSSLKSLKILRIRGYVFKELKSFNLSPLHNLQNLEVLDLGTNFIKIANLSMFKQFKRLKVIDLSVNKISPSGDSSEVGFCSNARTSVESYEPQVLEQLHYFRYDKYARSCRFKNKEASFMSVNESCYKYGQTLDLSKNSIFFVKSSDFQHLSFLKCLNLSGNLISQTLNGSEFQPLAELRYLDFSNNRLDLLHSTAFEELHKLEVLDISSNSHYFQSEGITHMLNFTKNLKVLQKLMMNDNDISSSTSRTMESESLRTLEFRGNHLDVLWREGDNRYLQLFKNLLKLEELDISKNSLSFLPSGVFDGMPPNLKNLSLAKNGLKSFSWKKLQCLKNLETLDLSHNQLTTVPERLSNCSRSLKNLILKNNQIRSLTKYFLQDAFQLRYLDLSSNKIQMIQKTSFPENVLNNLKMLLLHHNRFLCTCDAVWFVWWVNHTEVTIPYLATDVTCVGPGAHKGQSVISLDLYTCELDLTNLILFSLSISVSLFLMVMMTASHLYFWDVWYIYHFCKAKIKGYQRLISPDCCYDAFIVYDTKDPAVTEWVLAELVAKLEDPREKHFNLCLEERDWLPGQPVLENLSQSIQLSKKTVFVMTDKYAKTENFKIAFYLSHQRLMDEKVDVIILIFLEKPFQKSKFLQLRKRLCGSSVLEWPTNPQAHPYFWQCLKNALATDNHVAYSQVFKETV
[1] abbreviates: TLR9 IC50, HEK-Blue human TLR9 cells, ODN2006 5 nM.
The mark [2] stands for this setting: TLR8 IC50, HEK-Blue human TLR8 cells, R848 15.9 μM.
[3] abbreviates: HEK-Blue human TLR7 cells, gardiquimod 7.5 μM.
Where [4] appears, read: read-out: TLR9 IC50, HEK-Blue cells overexpressing human TLR9, ODN2006 5 nM stimulation, SEAP reporter.
[5] abbreviates: read-out: TLR8 IC50, HEK-Blue cells overexpressing human TLR8, R848 15.9 μM stimulation, SEAP reporter.
Setting [6] is: HEK-Blue cells overexpressing human TLR7, gardiquimod 7.5 μM stimulation, SEAP reporter.

One may read the pIC50 as −log10 of the IC50, conventionally taken in molar units. Consider `[2H]C([2H])([2H])N(C([2H])([2H])[2H])C([2H])([2H])C(=O)N1CCN(c2ccc3[nH]c(-c4cn5ncnc5c(C)c4C)c(C(C)C)c3n2)CC1` (single isomer, unassigned) [Example 888], for which the pIC50 at human TLR9 (setting [1]) was 4.91; at human TLR8 (setting [2]) it was 9.23; against human TLR7 (setting [3]), 8.92.

In the case of `[2H]C([2H])(C(=O)N1CCN(c2ccc3[nH]c(-c4cn5ncnc5c(C)c4C)c(C(C)C)c3n2)CC1)N(C)C` (single isomer, unassigned) [Example 889], the pIC50 against human TLR9 (setting [1]) is 5.01; against human TLR8 (setting [2]), 9.12; against human TLR7 (setting [3]), 8.82.

Regarding `[2H]C([2H])(C(=O)N1C([2H])([2H])C([2H])([2H])N(c2ccc3[nH]c(-c4cn5ncnc5c(C)c4C)c(C(C)C)c3n2)C([2H])([2H])C1([2H])[2H])N(C)C` (single isomer, unassigned) [Example 890], the results for the pIC50 on human TLR9 (setting [1]), against human TLR8 (setting [2]) and on human TLR7 (setting [3]) were 4.83, 8.85 and 8.74, respectively.

As to `[2H]C([2H])([2H])N(C([2H])([2H])[2H])C([2H])([2H])C(=O)N1C([2H])([2H])C([2H])([2H])N(c2ccc3[nH]c(-c4cn5ncnc5c(C)c4C)c(C(C)C)c3n2)C([2H])([2H])C1([2H])[2H]` (single isomer, unassigned) [Example 891], the pIC50 on human TLR9 (setting [1]) was 4.75; at human TLR8 (setting [2]), 9.03; at human TLR7 (setting [3]), 9.19.

For the molecule `Cc1c(-c2[nH]c3ccc(N4CC(NC5CCOCC5)C4)nc3c2C(C)C)cn2ncnc2c1C` [Example 1, 1-(2-(7,8-dimethyl-[1,2,4]triazolo[1,5-a]pyridin-6-yl)-3-isopropyl-1H-pyrrolo[3,2-b]pyridin-5-yl)-N-(tetrahydro-2H-pyran-4-yl)azetidin-3-amine], the results for the pIC50 on human TLR9 (setting [4]), at human TLR8 (setting [5]) and against human TLR7 (setting [6]) were 5.11, 8.42 and 7.70, respectively.

As for `Cc1c(-c2[nH]c3ccc(N4CCNCC4)nc3c2C(C)C)cn2ncnc2c1C` [Example 2, 6-(3-isopropyl-5-(piperazin-1-yl)-1H-pyrrolo[3,2-b]pyridin-2-yl)-7,8-dimethyl-[1,2,4]triazolo[1,5-a]pyridine], the negative-log IC50 (pIC50) on human TLR9 (setting [4]) was 5.14; on human TLR8 (setting [5]), 9.57; against human TLR7 (setting [6]), 8.77.

In the case of `COc1ccc(-c2[nH]c3ccc(C4CCN(C5CCN(CC(C)C)CC5)CC4)nc3c2C)cc1OC` [Example 5, 2-(3,4-dimethoxyphenyl)-5-(1′-isobutyl-[1,4′-bipiperidin]-4-yl)-3-methyl-1H-pyrrolo[3,2-b]pyridine], the negative-log IC50 (pIC50) was 7.43 on human TLR9 (setting [4]), 5.39 on human TLR8 (setting [5]) and 6.33 on human TLR7 (setting [6]).

As to `CCN(CCN(C)C)C(=O)c1nc2c(C(C)C)c(-c3cc(OC)c4ncnn4c3)[nH]c2cc1C` [Example 6, N-(2-(dimethylamino)ethyl)-N-ethyl-3-isopropyl-2-(8-methoxy-[1,2,4]triazolo[1,5-a]pyridin-6-yl)-6-methyl-1H-pyrrolo[3,2-b]pyridine-5-carboxamide], the pIC50 was 6.20 at human TLR9 (setting [4]), 8.49 on human TLR8 (setting [5]) and 9.52 at human TLR7 (setting [6]).

In the case of `CNC(=O)CNC1CCC(c2ccc3[nH]c(-c4cc(OC)c5ncnn5c4)c(C(C)C)c3n2)C1` (stereo not drawn) [Example 10, 2-((3-(3-isopropyl-2-(8-methoxy-[1,2,4]triazolo[1,5-a]pyridin-6-yl)-1H-pyrrolo[3,2-b]pyridin-5-yl)cyclopentyl)amino)-N-methylacetamide], the pIC50 on human TLR9 (setting [4]) is 5.98; on human TLR8 (setting [5]) it was 8.28; against human TLR7 (setting [6]), 9.38.

As to `Cc1cc(-c2[nH]c3cc(F)c(C4CCNCC4)nc3c2C(C)C)cn2ncnc12` [Example 11, 6-(6-fluoro-3-isopropyl-5-(piperidin-4-yl)-1H-pyrrolo[3,2-b]pyridin-2-yl)-8-methyl-[1,2,4]triazolo[1,5-a]pyridine], the results for the pIC50 at human TLR9 (setting [4]), at human TLR8 (setting [5]) and against human TLR7 (setting [6]) were 5.17, 7.68 and 8.77, respectively.

With `Cc1c(-c2[nH]c3ccc(N4CC(N(C)C)C4)nc3c2C(C)C)cn2ncnc2c1C` [Example 12], the results for the pIC50 on human TLR9 (setting [4]), on human TLR8 (setting [5]) and against human TLR7 (setting [6]) were 5.00, 8.80 and 8.00, respectively.

`COc1cc(-c2[nH]c3ccc(N4CC(N(C)C)C4)nc3c2C(C)C)cn2ncnc12` [Example 13]: the values for the negative-log IC50 (pIC50) at human TLR9 (setting [4]), at human TLR8 (setting [5]) and on human TLR7 (setting [6]) were 5.30, 8.72 and 8.49, respectively.

In the case of `Cc1c(-c2[nH]c3ccc(N4CC(N)C4)nc3c2C(C)C)cn2ncnc2c1C` [Example 14], the pIC50 on human TLR9 (setting [4]) was 5.36; at human TLR8 (setting [5]), 8.38; against human TLR7 (setting [6]) it was 7.96.

Consider `Cc1c(-c2[nH]c3ccc(N4CC(NC(=O)CN(C)C)C4)nc3c2C(C)C)cn2ncnc2c1C` [Example 15], for which the negative logarithm of the IC50 (pIC50) is 5.71 at human TLR9 (setting [4]), 8.37 on human TLR8 (setting [5]) and 8.14 on human TLR7 (setting [6]).

For `COc1cc(-c2[nH]c3ccc(N4CC(N)C4)nc3c2C(C)C)cn2ncnc12` [Example 16], the negative logarithm of the IC50 (pIC50) on human TLR9 (setting [4]) is 6.20; at human TLR8 (setting [5]), 8.68; on human TLR7 (setting [6]) it was 9.22.

As to `COc1cc(-c2[nH]c3ccc(N4CC(NC(=O)CN(C)C)C4)nc3c2C(C)C)cn2ncnc12` [Example 17], the negative-log IC50 (pIC50) is 5.96 at human TLR9 (setting [4]), 8.11 at human TLR8 (setting [5]) and 8.43 at human TLR7 (setting [6]).

In the case of `COc1cc(-c2[nH]c3ccc(N4CC(NCC(=O)N(C)C)C4)nc3c2C(C)C)cn2ncnc12` [Example 18], the pIC50 is 5.83 on human TLR9 (setting [4]), 7.85 on human TLR8 (setting [5]) and 7.85 at human TLR7 (setting [6]).

In the case of `Cc1c(-c2[nH]c3ccc(N4CC(N(C)C(=O)CN(C)C)C4)nc3c2C(C)C)cn2ncnc2c1C` [Example 19], the negative-log IC50 (pIC50) on human TLR9 (setting [4]) is 5.22; at human TLR8 (setting [5]), 7.14; against human TLR7 (setting [6]), 6.90.

On to `CNC1CN(c2ccc3[nH]c(-c4cn5ncnc5c(C)c4C)c(C(C)C)c3n2)C1` [Example 20], for which the negative logarithm of the IC50 (pIC50) on human TLR9 (setting [4]) is 6.21; on human TLR8 (setting [5]) it was 8.89; at human TLR7 (setting [6]), 8.57.

Consider `Cc1c(-c2[nH]c3ccc(N4CC(N(C)CC(=O)N(C)C)C4)nc3c2C(C)C)cn2ncnc2c1C` [Example 21], for which the negative logarithm of the IC50 (pIC50) is under 4.30 at human TLR9 (setting [4]), 7.34 on human TLR8 (setting [5]) and 7.04 at human TLR7 (setting [6]).

`Cc1c(-c2[nH]c3ccc(N4CC(NCC(=O)N(C)C)C4)nc3c2C(C)C)cn2ncnc2c1C` [Example 22]: the figures for the pIC50 at human TLR9 (setting [4]), at human TLR8 (setting [5]) and against human TLR7 (setting [6]) were 4.67, 7.92 and 7.25, respectively.

For `CNC1CN(c2ccc3[nH]c(-c4cn5ncnc5c(C)c4C)c(C(C)C)c3n2)C1` [Example 23], the figures for the pIC50 at human TLR9 (setting [4]), at human TLR8 (setting [5]) and against human TLR7 (setting [6]) were under 4.30, under 5.51 and under 5.51, respectively.

Consider `Cc1c(-c2[nH]c3ccc(N4CC(N(C)C5CCOCC5)C4)nc3c2C(C)C)cn2ncnc2c1C` [Example 24], for which the negative-log IC50 (pIC50) on human TLR9 (setting [4]) was 4.85; on human TLR8 (setting [5]), 8.57; on human TLR7 (setting [6]), 7.40.

As to `Cc1c(-c2[nH]c3ccc(N4CC(N(C)C(=O)CN(C)C)C4)nc3c2C(C)C)cn2ncnc2c1C` [Example 25], the negative logarithm of the IC50 (pIC50) is 4.93 at human TLR9 (setting [4]), 6.93 on human TLR8 (setting [5]) and 6.74 at human TLR7 (setting [6]).

On to `Cc1c(-c2[nH]c3ccc(N4CC(NCC(=O)N(C)C)C4)nc3c2C(C)C)cn2ncnc2c1C` [Example 26], for which the negative logarithm of the IC50 (pIC50) at human TLR9 (setting [4]) is under 4.30; at human TLR8 (setting [5]) it was 5.67; at human TLR7 (setting [6]), 5.75.

Consider `COc1cc(-c2[nH]c3ccc(N4CC(NCC(=O)N(C)C)C4)nc3c2C(C)C)cn2ncnc12` [Example 27], for which the values for the negative-log IC50 (pIC50) on human TLR9 (setting [4]), on human TLR8 (setting [5]) and at human TLR7 (setting [6]) were under 4.30, under 5.51 and under 5.51, respectively.

As to `COc1cc(-c2[nH]c3ccc(N4CC(N(C)C(=O)CN(C)C)C4)nc3c2C(C)C)cn2ncnc12` [Example 28], the pIC50 on human TLR9 (setting [4]) is under 4.30; on human TLR8 (setting [5]), 5.83; on human TLR7 (setting [6]) it was 6.58.

Regarding `COc1cc(-c2[nH]c3ccc(N4CC(NC5CCOCC5)C4)nc3c2C(C)C)cn2ncnc12` [Example 29], the pIC50 was 5.55 on human TLR9 (setting [4]), 8.57 at human TLR8 (setting [5]) and 8.34 on human TLR7 (setting [6]).

Consider `COc1cc(-c2[nH]c3ccc(N4CC(NCC5(C)COC5)C4)nc3c2C(C)C)cn2ncnc12` [Example 30], for which the results for the pIC50 on human TLR9 (setting [4]), at human TLR8 (setting [5]) and at human TLR7 (setting [6]) were 4.65, 7.37 and 7.15, respectively.

Consider `CNC1CN(c2ccc3[nH]c(-c4cc(OC)c5ncnn5c4)c(C(C)C)c3n2)C1` [Example 31], for which the pIC50 at human TLR9 (setting [4]) was 5.22; at human TLR8 (setting [5]), 7.72; against human TLR7 (setting [6]) it was 7.89.

On to `CC(C)c1c(-c2cn(C)c3ncccc23)[nH]c2ccc(N3CC(N)C3)nc12` [Example 32], for which the pIC50 on human TLR9 (setting [4]) was 5.73; at human TLR8 (setting [5]), 8.16; against human TLR7 (setting [6]), 8.14.

Consider `CC(C)c1c(-c2cn(C)c3ncccc23)[nH]c2ccc(N3CC(NC4CCOCC4)C3)nc12` [Example 33], for which the pIC50 on human TLR9 (setting [4]) was 5.72; at human TLR8 (setting [5]), 8.72; against human TLR7 (setting [6]) it was 8.19.

In the case of `CC(C)c1c(-c2cn(C)c3ncccc23)[nH]c2ccc(N3CC(NCC(=O)N(C)C)C3)nc12` [Example 34], the figures for the pIC50 at human TLR9 (setting [4]), at human TLR8 (setting [5]) and at human TLR7 (setting [6]) were 5.91, 8.22 and 7.77, respectively.

Turning to `CC(C)c1c(-c2cn(C)c3ncccc23)[nH]c2ccc(N3CC(N)C3)nc12` [Example 35], the negative-log IC50 (pIC50) on human TLR9 (setting [4]) was 4.86; at human TLR8 (setting [5]), 6.55; against human TLR7 (setting [6]), 6.23.

Regarding `CC(C)c1c(-c2cn(C)c3ncccc23)[nH]c2ccc(N3CC(NC4CCOCC4)C3)nc12` [Example 36], the figures for the pIC50 at human TLR9 (setting [4]), at human TLR8 (setting [5]) and against human TLR7 (setting [6]) were 4.66, under 5.51 and under 5.51, respectively.

Turning to `CC(C)c1c(-c2cn(C)c3ncccc23)[nH]c2ccc(N3CC(NCC(=O)N(C)C)C3)nc12` [Example 37], the negative-log IC50 (pIC50) was under 4.30 on human TLR9 (setting [4]), 6.33 on human TLR8 (setting [5]) and 5.90 against human TLR7 (setting [6]).
